Data published in patent publication US20120093946A1, “USE OF CARBON DIOXIDE SUPPLYING MEANS FOR MUSCLE STRENGTHENING AND METHOD OF INCREASING CATTLE MEAT THEREBY” (priority 2007, published 2012).

Columns and labels:
[1] = system: muscle strength of the quadriceps femoris and the hamstrings; experiment: Promotion of muscle strengthening by stretching exercise on isometric torque of legs, transdermal carbon dioxide absorption on treated leg; type: in vivo, human
Description: Eight subjects including two subjects who played sports three times or more a week (hereinafter, referred to as “athlete”) and six subjects who played sports two times or less a week (hereinafter, referred to as “non-athlete”) participated in the experiment. Each subject did warming-up by pedaling a gym bicycle for ten minutes. Next, each subject did a stretching exercise on isometric torque of the quadriceps femoris 300 times or more by using training machine MyoretRZ-450 (Kawasaki Heavy Industries, Ltd.). Thus, an exercise load was applied to the quadriceps femoris. Then, the muscle strength of the quadriceps femoris and the muscle strength of the hamstrings to which an exercise load was not applied were measured by using MyoretRZ-450.
After the training was completed, the carbon dioxide absorption aid 4 described in Example 5 in Patent Document 7 (Japanese Patent Unexamined Publication No. 2004-517345) was applied to one determined leg (hereinafter, referred to as a “treated leg”). The treated leg was covered with an 80 cm-long polypropylene bag type sealing enclosure member equipped with a check valve. Then, the member was filled with carbon dioxide from a carbon dioxide gas cylinder and stood still for ten minutes. The carbon dioxide concentration was set to 80% (800,000 ppm). No treatment was given to the other leg (hereinafter, referred to as a “non-treated leg”). The training was carried out only once, this time.
Each subject allowed the treated leg to absorb carbon dioxide for ten minutes once a day as mentioned above by using the carbon dioxide supplying means for muscle strengthening of the present invention (by using a carbon dioxide external administration device as the carbon dioxide supplying means). Thereafter, the muscle strength of the quadriceps femoris and the muscle strength of the hamstrings were measured by using MyoretRZ-450.
On day 4 and later after the experiment was started, neither absorption of carbon dioxide nor stretching exercise on isometric torque of the quadriceps femoris was carried out. On day 7 after the experiment was started, the muscle strengths of the quadriceps femoris and the hamstrings were measured by using MyoretRZ-450.

[2] = system: muscle strengths of the quadriceps femoris and the hamstrings; experiment: Promotion of muscle strengthening with no exercise load applied, three months; type: in vivo, human; settings: month 3, no exercise load, 80% CO2 ten minutes at least once a week
Description: Thirteen subjects (all males, aged from 27 to 43) participated in the experiment. In each subjects, the absorption aid 4 of carbon dioxide described in Example 5 in Patent Document 7 (Japanese Patent Unexamined Publication No. 2004-517345) was given to one determined leg (hereinafter, referred to as a “treated leg”). The treated leg was covered with an 80 cm-long polypropylene bag type sealing enclosure member equipped with a check valve. Then, carbon dioxide was filled in the member from a carbon dioxide gas cylinder and stood still for ten minutes. The carbon dioxide concentration was set to 80% (800,000 ppm). The treatment was carried out at least once a week for three months. No treatment was given to the other leg (hereinafter, referred to as a “non-treated leg”). Before and three months after the experiment was started, the muscle strengths of the treated leg and the non-treated leg were measured (the muscle strengths of the quadriceps femoris and the hamstrings were measured by using MyoretRZ-450).

rat lower thigh muscle = experiment: Increase in amount of rat muscle with no exercise load applied, three months; type: in vivo, Wister rats
Description: Nine male Wister rats (5-week old at the time when the experiment was started) were used.
In the CO2 group, the hair was removed from the right and left lower thighs of six rats under anesthesia. Then, the absorption aid 4 of carbon dioxide described in Example 5 in Patent Document 7 (Japanese Patent Unexamined Publication
No. 2004-517345) was applied to only the right lower thigh (hereinafter, referred to as a “treated limb”). Next, the rat lower body was covered with a polyethylene bag type sealing enclosure member provided with a hole through which the left hind limb comes out so that only the right hind limb absorbs carbon dioxide. Then, carbon dioxide was filled in the sealing enclosure member by using a carbon dioxide gas cylinder so as to inflate the sealing enclosure member. In order to always secure a sufficient amount of carbon dioxide in the sealing enclosure member, carbon dioxide was added at any time, so that the sealing enclosure member was filled with carbon dioxide for ten minutes. The carbon dioxide concentration inside the sealing enclosure member was set to 100%. […]
Three months later, the rat body weights were measured and the muscle was collected from the right and left lower thighs. The muscle wet weight of the collected muscle was measured, followed by detecting growth a acceleration indicating proteins of muscle fibers, MyoD and Myogenin (see Atsuko HARA et al., “Expression of myosin heavy chain isoforms, myogenin and MyoD in the course of regeneration of skeletal muscle,” Journal of Health Sciences of Hiroshima University, Vol. 2 (1): 12-18, 2002), and IGF-IR [see Junichi SUZUKI et al., “Effect of endurance training with L-arginine supplementation on expression of IGF-1 receptor in rat skeletal muscles” Research for Winter Sports, (the Proceedings of Research and Education Center for Winter Sports, Hokkaido University of Education), Vol. 8 (1) 1-7, 2005], by Western blotting. The resultant bands were analyzed on the analysis software (NIH-Image) so as to quantify each growth acceleration indicating protein. […]

grip strength = experiment: Promotion of kaatsu training effect, grip strength; type: in vivo, human
Protocol: Two subjects participated in the experiment. The experiment was carried out according to Abe T. et al. (2006) Electromyographic responses of arm and chest muscle during bench press exercise with and without KAATSU. Int. J. Kaatsu Training Res. 2:15-18. The grip strengths of both hands of each subject were measured before the experiment was started. Next, the absorption aid 4 of carbon dioxide described in Example 5 in Patent Document 7 (Japanese Patent Unexamined Publication No. 2004-517345) was applied to the entire left arm of each subject, and the left arm was covered with an 80 cm-long polypropylene bag type sealing enclosure member equipped with a check valve. A cuff of blood pressure manometer was worn on the upper arm with the sealing enclosure member applied. Firstly, the upper arm was pressurized with a cuff pressure of 50 mmHg for 30 seconds. Next, the pressure was released once for 10 seconds, and then the upper arm was pressurized while gradually increasing the cuff pressure to 70 mmHg. When the cuff pressure reached 70 mmHg, the pressure was fixed. Then, carbon dioxide was filled in the sealing enclosure member from a carbon dioxide gas cylinder so as to inflate the sealing enclosure member. […]
Three days after the experiment, the grip strength of both hands of each subject was measured.

[3] = day 7, non-athletes, pre-ex defined as 100%
[4] = 100% CO2 ten minutes twice a week

**Q.** Which “blood pressure and heart rate of the subjects during the absorption of carbon dioxide” value ([1]; after exercise load, 80% CO2, ten minutes, treated leg) does the source give for `O=C=O` [carbon dioxide] here?
**A.** Its value is “did not change”.

**Q.** What about the “muscle strengthening of the quadriceps femoris in the treated leg” value ([1]; day 7, all subjects, pre-ex defined as 100%, CO2 absorption stopped from day 4) of the same compound?
**A.** Its value is 20%.

**Q.** What about the “muscle strengthening of the hamstrings (no exercise load) in the treated leg” value ([1]; day 7, all subjects, pre-ex defined as 100%, significant at P=5%) of the same compound?
**A.** The value was “about 15%”.

**Q.** What about the “muscle strengthening of the hamstrings (no exercise load) in the treated leg, non-athletes” value [1, 3] of the same compound?
**A.** The value was “about 20%”.

**Q.** And the “muscle strengthening of the quadriceps femoris in the treated leg, non-athletes” value [1, 3]?
**A.** Its value is “about 30%”.

**Q.** And the “muscle strengthening of the quadriceps femoris, treated leg compared with non-treated leg” value ([1]; days 2 to 4 of the experiment, CO2 ten minutes once a day)?
**A.** Its value is “promoted”.

**Q.** What about the “recovery of the muscle strength of the quadriceps femoris, treated leg versus non-treated leg” value ([1]; post-CO2, day of exercise load, 80% CO2, ten minutes) of the same compound?
**A.** Its value is “faster”.

**Q.** And the “muscle strengthening of the quadriceps femoris in the treated leg as compared with the non-treated leg” value ([2]; P=1%)?
**A.** The value was “about 15%”.

**Q.** And the “muscle strengthening of the hamstrings in the treated leg as compared with the non-treated leg” value ([2]; P=5%)?
**A.** The value was “about 15%”.

**Q.** And the “muscle wet weight per body weight, CO2 group as compared with CONTROL group” value (rat lower thigh muscle; [4])?
**A.** Its value is “increase”.

**Q.** What about the “muscle wet weight, treated leg as compared with non-treated leg in the CO2 group” value (rat lower thigh muscle; [4]) of the same compound?
**A.** Its value is “remarkable increase”.

**Q.** What about the “amount of growth acceleration indicating protein (MyoD, Myogenin, IGF-IR) extracted from the muscle, CO2 group versus CONTROL group” value (rat lower thigh muscle; Western blotting) of the same compound?
**A.** The value was “increased”.

**Q.** And the “muscle strengthening rate (grip strength) compared with only pressurizing” value (grip strength; day 3 after kaatsu training, treated arm versus non-treated arm)?
**A.** The value was “two-times”.

**Q.** And the “muscle pain and fatigue accompanying kaatsu training” value (grip strength; left hand with carbon dioxide absorption versus only pressurizing and exercise)?
**A.** The value was “reduced”.
